One may read the IC50 as the concentration at which inhibition is half-maximal. A higher IC50 goes with weaker potency in that assay.

The values below come from publication PMC6540952 (Chemical Science, 2019).

This test addresses IP6K1 (Homo sapiens, UniProt Q92551). As to the kind of experiment: NMR kinase activity assay with [[…]6]InsP6, […] ATP. It is filed as biochemical.

Sequence of IP6K1 (Q92551 whole entry): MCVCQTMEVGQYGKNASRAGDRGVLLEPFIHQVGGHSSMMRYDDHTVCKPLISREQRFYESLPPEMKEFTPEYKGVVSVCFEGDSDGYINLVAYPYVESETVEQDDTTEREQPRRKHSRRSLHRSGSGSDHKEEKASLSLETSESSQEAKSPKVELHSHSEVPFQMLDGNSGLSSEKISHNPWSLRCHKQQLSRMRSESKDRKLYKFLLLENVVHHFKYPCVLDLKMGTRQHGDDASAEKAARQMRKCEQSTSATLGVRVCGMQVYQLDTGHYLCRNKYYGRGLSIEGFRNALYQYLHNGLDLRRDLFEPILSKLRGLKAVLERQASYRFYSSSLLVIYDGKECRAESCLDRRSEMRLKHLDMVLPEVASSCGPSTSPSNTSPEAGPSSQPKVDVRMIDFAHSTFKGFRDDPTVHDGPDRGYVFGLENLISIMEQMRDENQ

Consider `O=[N+]([O-])c1ccc(CNc2nc(NCc3cccc(C(F)(F)F)c3)nc3[nH]cnc23)cc1` [TNP], for which half-maximal inhibition (IC50) was put at 2250 nM. This counts as single-digit micromolar.
